Reference: ChEMBL document CHEMBL3526108, “Contribution of carboxylesterase in hamster to the intestinal first-pass loss and low bioavailability of ethyl piperate, an effective lipid-lowering drug candidate” (Drug Metab Dispos, 2011)
Blank lines part the entries; values can stand above or below the compound they belong to.

Assays:
[1] = Apparent permeability coefficient of compound in hamster treated with 400 uM of ethyl piperate administered as intestinal single-pass perfusion up to 1 hr by LC-MS/MS analysis; type: ADME, organism-based; conditions: cricetinae
[2] = system: Hamster; experiment: Drug metabolism in hamster assessed as appearance rate of compound in portal vein treated with 400 uM of ethyl piperate administered as intestinal single-pass perfusion up to 1 hr by LC-MS/MS analysis; type: ADME, organism-based; conditions: cricetinae, in vivo, other
[3] = Apparent permeability coefficient of compound in hamster treated with 400 uM of ethyl piperate administered as intestinal single-pass perfusion up to 1 hr by LC-MS/MS analysis in presence of BNPP; type: ADME, organism-based; conditions: cricetinae
[4] = system: Hamster; experiment: Drug metabolism in hamster assessed as appearance rate of compound in intestine treated with 400 uM of ethyl piperate administered as intestinal single-pass perfusion up to 1 hr by LC-MS/MS analysis; type: ADME, organism-based; conditions: cricetinae, in vivo, other
[5] = system: Hamster; experiment: Drug metabolism in hamster assessed as appearance rate of compound in intestine treated with 400 uM of ethyl piperate administered as intestinal single-pass perfusion up to 1 hr by LC-MS/MS analysis in presence of BNPP; type: ADME, organism-based; conditions: cricetinae, in vivo, other
[6] = system: Hamster; experiment: Drug metabolism in hamster assessed as appearance rate of compound in portal vein treated with 400 uM of ethyl piperate administered as intestinal single-pass perfusion up to 1 hr by LC-MS/MS analysis in presence of BNPP; type: ADME, organism-based; conditions: cricetinae, in vivo, other
[7] = system: Hamster; experiment: Drug metabolism in hamster assessed as appearance rate of parent compound in portal vein at 400 uM administered as intestinal single-pass perfusion up to 1 hr by LC-MS/MS analysis in presence of BNPP; type: ADME, organism-based; conditions: cricetinae, in vivo, other
[8] = Drug metabolism in hamster liver microsomes assessed as carboxylesterase-mediated compound hydrolysis at 50 uM after 30 mins; type: ADME; conditions: cricetinae, 0.5 h
[9] = Permeability from basolateral to apical side of human Caco2 cells at 5 uM after 1 hr in presence of BNPP; type: ADME, cell-based; conditions: caco-2, 1 h
[10] = Permeability from apical to basolateral side of human Caco2 cells at 5 uM after 1 hr in presence of BNPP; type: ADME, cell-based; conditions: caco-2, 1 h
[11] = Drug metabolism in hamster liver microsomes assessed as carboxylesterase-mediated compound hydrolysis at 50 uM after 30 mins in presence of BNPP in presence of BNPP; type: ADME; conditions: cricetinae, 0.5 h
[12] = Elimination half life in hamster at 10 mg/kg, iv; type: ADME, organism-based; design: dose 10 mg/kg, route intravenous; conditions: cricetinae, in vivo, read-out: beta t1/2 (converted)
[13] = AUC (0 to t) in hamster at 10 mg/kg, iv; type: ADME, organism-based; design: dose 10 mg/kg, route intravenous; conditions: cricetinae, plasma
[14] = Stability of the compound at simulated gastrointestinal pH conditions assessed as degradation; type: ADME
[15] = Drug metabolism in hamster kidney microsomes assessed as carboxylesterase-mediated compound hydrolysis at 50 uM after 30 mins in presence of BNPP; type: ADME; conditions: cricetinae, 0.5 h
[16] = system: Hamster; experiment: Degradation clearance in hamster at 400 uM administered as intestinal single-pass perfusion up to 1 hr by LC-MS/MS analysis in presence of BNPP; type: ADME, organism-based; conditions: cricetinae, in vivo, other
[17] = system: Hamster; experiment: Drug metabolism in hamster assessed as disappearance rate of parent compound in intestine at 400 uM administered as intestinal single-pass perfusion up to 1 hr by LC-MS/MS analysis; type: ADME, organism-based; conditions: cricetinae, in vivo, other
[18] = system: Hamster; experiment: Volume of distribution in hamster at 10 mg/kg, iv; type: ADME, organism-based; design: dose 10 mg/kg, route intravenous; conditions: cricetinae, in vivo
[19] = Apparent permeability coefficient of parent compound in hamster at 400 uM administered as intestinal single-pass perfusion up to 1 hr by LC-MS/MS analysis in presence of BNPP; type: ADME, organism-based; conditions: cricetinae, with BNPP
[20] = system: Hamster; experiment: Drug metabolism in hamster assessed as appearance rate of parent compound in portal vein at 400 uM administered as intestinal single-pass perfusion up to 1 hr by LC-MS/MS analysis; type: ADME, organism-based; conditions: cricetinae, in vivo, other
[21] = MRT (0 to t) in hamster at 10 mg/kg, iv; type: ADME, organism-based; design: dose 10 mg/kg, route intravenous; conditions: cricetinae, in vivo
[22] = Oral bioavailability in hamster at 30 mg/kg; type: ADME, organism-based; conditions: cricetinae, in vivo
[23] = Drug metabolism in hamster liver microsomes assessed as carboxylesterase-mediated compound hydrolysis at 50 uM after 30 mins in presence of BNPP; type: ADME; conditions: cricetinae, 0.5 h
[24] = Cmax in hamster at 30 mg/kg, po; type: ADME, organism-based; design: dose 30 mg/kg, route oral; conditions: cricetinae, in vivo
[25] = Drug metabolism in hamster intestinal S9 fraction assessed as production of piperinic acid by Michaelis-Menten equation analysis; type: ADME, Intestine; conditions: cricetinae
[26] = Tmax in hamster at 30 mg/kg, po; type: ADME, organism-based; design: dose 30 mg/kg, route oral; conditions: cricetinae, in vivo
[27] = system: Hamster; experiment: Drug metabolism in hamster intestinal S9 fraction assessed as production of piperinic acid at 400 uM administered as intestinal single-pass perfusion up to 1 hr by LC-MS/MS analysis in presence of BNPP; type: ADME, Intestine; conditions: cricetinae, s9, 1 h
[28] = Drug metabolism in hamster kidney microsomes assessed as carboxylesterase-mediated compound hydrolysis at 50 uM after 30 mins; type: ADME; conditions: cricetinae, 0.5 h
[29] = system: Hamster; experiment: Degradation clearance in hamster at 400 uM administered as intestinal single-pass perfusion up to 1 hr by LC-MS/MS analysis; type: ADME, organism-based; conditions: cricetinae, in vivo, other
[30] = MRT (0 to t) in hamster at 30 mg/kg, po; type: ADME, organism-based; design: dose 30 mg/kg, route oral; conditions: cricetinae, in vivo
[31] = system: Hamster; experiment: Drug metabolism in hamster assessed as disappearance rate of parent compound in intestine at 400 uM administered as intestinal single-pass perfusion up to 1 hr by LC-MS/MS analysis in presence of BNPP; type: ADME, organism-based; conditions: cricetinae, in vivo, other
[32] = Apparent permeability coefficient of parent compound in hamster at 400 uM administered as intestinal single-pass perfusion up to 1 hr by LC-MS/MS analysis; type: ADME, organism-based; conditions: cricetinae
[33] = Stability of the compound in hamster intestinal washings assessed as compound remaining at 100 uM after 1 hr by LC-MS/MS analysis; type: ADME; conditions: cricetinae, read-out: Stability
[34] = system: Hamster; experiment: Absorption clearance in hamster at 400 uM administered as intestinal single-pass perfusion up to 1 hr by LC-MS/MS analysis; type: ADME, organism-based; conditions: cricetinae, in vivo, other
[35] = Drug recovery in human Caco2 cells at 5 uM after 1 hr in presence of BNPP; type: ADME, cell-based; conditions: Caco-2, with BNPP, read-out: Drug recovery
[36] = Drug metabolism in hamster intestinal microsomes assessed as carboxylesterase-mediated compound hydrolysis at 50 uM after 30 mins; type: ADME, Intestine; conditions: cricetinae, 0.5 h
[37] = system: Hamster; experiment: Drug metabolism in hamster assessed as production of piperinic acid at 400 uM administered as intestinal single-pass perfusion up to 1 hr by LC-MS/MS analysis; type: ADME, organism-based; conditions: cricetinae, in vivo, other
[38] = system: Hamster; experiment: Absorption clearance in hamster at 400 uM administered as intestinal single-pass perfusion up to 1 hr by LC-MS/MS analysis in presence of BNPP; type: ADME, organism-based; conditions: cricetinae, in vivo, other
[39] = AUC (0 to t) in hamster at 30 mg/kg, po; type: ADME, organism-based; design: dose 30 mg/kg, route oral; conditions: cricetinae, plasma

- Papp at 1 h [1]: 373 ×10⁻⁶ cm/s
- Drug metabolism [2]: 52.1 nmol/min
- Papp at 1 h [3]: 127 ×10⁻⁶ cm/s
- Drug metabolism [4]: 2.3 nmol/min
- Drug metabolism [5]: 2 nmol/min
- Drug metabolism [6]: 21.7 nmol/min
SMILES: O=C(O)/C=C/C=C/c1ccc2c(c1)OCO2 [PIPERIC ACID]

- Drug metabolism [7]: 9.8 nmol/min
- Drug metabolism [8]: metabolite_detected
- permeability [9]: impermeable
- permeability [10]: impermeable
- Drug metabolism [11]: metabolite_not_detected
- half-life [12]: 37.8 min
- AUC(0-t) [13]: 2450 ng·h/mL
- Stability [14]: Stable
- Drug metabolism [15]: metabolite_not_detected
- CL [16]: 121.6 µL/min
- Drug metabolism [17]: 76.5 nmol/min
- Vz/F [18]: 3.76 L/kg
- Papp at 1 h, 400 µM [19]: 59.8 ×10⁻⁶ cm/s
- Drug metabolism [20]: 10.8 nmol/min
- MRT last [21]: 25.8 min
- bioavailability [22]: 0.47%
- Drug metabolism [23]: metabolite_not_detected
- Cmax [24]: 70.4 ng/mL
- Km [25]: 7.56 µM
- Vmax [25]: 0.16 nmol/min/mg
- Tmax [26]: 9 min
- Drug metabolism [27]: 0.06 nmol/min/mg
- Drug metabolism [28]: metabolite_detected
- CL [29]: 339.9 µL/min
- MRT last [30]: 24 min
- Drug metabolism [31]: 62.7 nmol/min
- Papp at 1 h, 400 µM [32]: 77 ×10⁻⁶ cm/s
- remaining at 1 h, 100 µM [33]: > 80%
- CL(app) [34]: 66.7 µL/min
- recovery at 1 h, 5 µM [35]: > 90%
- Drug metabolism [36]: metabolite_detected
- Drug metabolism [37]: 0.196 nmol/min/mg
- CL(app) [38]: 55 µL/min
- AUC(0-t) [39]: 34.5 ng·h/mL
SMILES: CCOC(=O)/C=C/C=C/c1ccc2c(c1)OCO2
